Measured values taken from patent US12203070B2, “Gene knockout of NRF2 for treatment of cancer” (Christiana Care Gene Editing Institute , Inc., priority 2019, dated 2025).
“And” between values parts separate entries of the source, which are not always exact repeats. Identical values can stand only once. “Also recorded” adds a separate entry of the source.

Assays:
[1] = tested on: NRF2 knockout A549 cells (2-11); assay: MTS cell proliferation assay after drug exposure, NRF2 knockout cells; format: cell-based, human; details: 2-11 knockout A549 cells, 72 hours; for chemosensitivity (MTS proliferation): increasing dosages
Protocol: (§1) Cell viability was evaluated using the CellTiter 96 Aqueous Non-Radioactive Cell Proliferation Assay (Promega, Madison, WI). A549 cell lines were plated at 2×10^3 cells per well and allowed to culture for 24 hours. The cell media was then aspirated, the cells washed with PBS, then exposed to the MTS reagent for 3 hours. After 3 hours of MTS bio-reduction by proliferating cells, the formazan product's absorbance was measured using a 450 nm filter on an Infinite 2000 PRO microplate reader (Tecan, Mannadorf, Switzerland). Cell viability after drug exposure was evaluated using the CellTiter 96 Aqueous Non-Radioactive Cell Proliferation Assay. A549 cell lines were plated at 2×10^3 cells per well and allowed to culture for 24 hours. The cells were then treated with cisplatin, carboplatin, or a combination of cisplatin and vinorelbine for three days. The cell media was then aspirated, the cells washed with PBS, then exposed to the MTS reagent for 3 hours. After 3 hours of MTS bio-reduction by proliferating cells, the formazan product's absorbance was measured using a 450 nm filter on an Infinite 2000 PRO microplate reader.

[2] = tested on: NRF2 knockout A549 (2-11) tumors; assay: Xenograft mouse model, NRF2 knockout A549 (2-11) tumors; format: in vivo, athymic nude mice; details: for tumor growth: 16 days
Protocol: The animal trials presented herein were carried out at Washington Biotech Inc., Simpsonville Maryland, under animal use and care protocol (SOP 505, SOP 520, SOP 522, SOP 1610, SOP1650) approved by the animal care and use committee of Washington Biotechnology Inc. (AAALAC accredited Animal Welfare Assurance number A4192-01). The human xenograft model was established using methodology reported previously. […] et al., Biomed Res. Int. 2015, 1-17 (2015). Female athymic nude mice (Envigo, 5-6 weeks old) were used in this study. Approximately 5×10^6 cells (wild type A549 or homozygous knockout (clonal expansion 2-11)) suspended in PBS with 20% Matrigel were injected subcutaneously into right flank of each mouse. Tumor volume was measured three times a week with a digital caliper once palpable, and calculated using the formula, tumor size=ab^2/2, where 'a' is the larger and 'b' is the smaller of the two dimensions. When tumors grew up to a mean volume of around 100 mm^3, A549 tumor bearing mice or A549-2-11 tumor bearing mice were randomly divided into 7 groups (N=5 for each group) respectively and subject to dose/regimen-finding study. […] Tumor volume and body weight was closely monitored over time. After 16 days, the animals were sacrificed, with tumor removed, weighed and processed for molecular analysis. Mice were euthanized. The data were expressed as mean±SD. Student's t-test and one-way or two-way ANOVA was used to assess the significance of difference. […] A549 xenografts were resected on day 16, snap frozen in liquid nitrogen and stored in -80° C. until usage. All immunofluorescence staining was performed as previously described. Wang et al., Investig. Opthalmology Vis. Sci. 58, 3896 (2017). Briefly, tumors were embedded in Optimum Cutting Temperature (Tissue Tek, Torrance, CA, USA) and 16-μm-thick sections were obtained with a Leica CM3050 cryostat (Leica Microsystems, Buffalo Grove, IL, USA), and mounted on slides. Slides were fixed and incubated with blocking buffer for 1 hour at room temperature. […]

NRF2 gene = assay: TIDE indel analysis of bulk sorted eGFP+ A549 cells transfected with pX458 CRISPR/Cas9 constructs; format: cell-based, human; details: bulk sorted eGFP+ A549 population, pX458 plasmid
Protocol: A549 cells were transfected at a concentration of 5×10^5 cells/100 μl in 4 mm gap cuvette (BioExpress, Kaysville, UT, USA). NRF2 targeting pX458 constructs were separately electroporated (250 V. LV, 13 ms pulse length, 2 pulses, 1 s interval) into A549 cells using a Bio-Rad Gene Pulser XCell Electroporation System (Bio-Rad Laboratories, Hercules, CA, USA). Cells were then recovered in 6-well plates with complete growth media at 37° C. for 72 hours prior to sorting. […] Clones were expanded and transferred to larger plates as the individual clones reached confluence, with DNA isolation occurring when cells reached confluence in a six-well plate (1×10^6 cells/mL).
CRISPR/Cas9 targeted A549 clones were PCR amplified (forward 5′-[…] (SEQ ID NO: 5), reverse 5′-[…] (SEQ ID NO: 6)) using Amplitaq Gold Fast PCR Master Mix (Applied Biosystems, Foster City, CA). Briefly, template DNA, primers, water and master mix were combined and cycled: 95° C. for 10 minutes, (96° C. for 3 s, 60° C. for 3 s, 68° C. for 5 s)×35 cycles, and 72° C. for 10 s. The 402 bp products were purified (Qiagen, Hilden, Germany) and Sanger sequenced using the forward PCR primer. Clonal allelic analyses of individual A549 cell clones were analyzed by the software program, Tracking of Indels by DEcomposition (TIDE), to determine the individual sub-sequences within the multi-peaked breakdown product after CRISPR/Cas9 activity. […]

wild type A549 cells = assay: MTS cell proliferation assay after drug exposure, wild type cells; format: cell-based, human
Protocol: as §1

N.N.O=C([O-])C1(C(=O)[O-])CCC1.[Pt+2] [carboplatin]
chemosensitivity (MTS proliferation) ([1]; listed as Carboplatin): reflected what was observed in the experiments using cisplatin | tumor growth ([2]; 25 mg/kg carboplatin tail vein on day 0, 3, 6, 9): same reduced proliferation and growth trend described above is reproduced

5′-UCGAUGUGACCGGGAAUAUCAGG (listed as RNA, chemistry not fully specified) [gRNA1]
indels (TIDE), NRF2 disruption (NRF2 gene): significant amount of indels

N.N.[Cl][Pt][Cl] [cisplatin]
concentration at and above which proliferation is lost [1]: ≥ 1 µM | chemosensitivity (MTS proliferation) [1]: increase in chemosensitivity in a dose-dependent fashion | concentration up to which a slight increase in cell proliferation is seen (wild type A549 cells; wild type A549, 72 hours): up to 3 μM | final concentration at which proliferation is adversely affected (wild type A549 cells; wild type A549, 72 hours): 5 µM and 10 µM | response of cell proliferation to drug (MTS) (wild type A549 cells; wild type A549, increasing dosages, 72 hours): resistant to high dosages of Cisplatin | tumor growth ([2]; cisplatin 2 mg/kg tail vein on day 0, 3, 6, 9): proliferation of the implanted cells is arrested; also recorded: smallest tumors | Ki67 staining of xenograft tumors ([2]; cisplatin 2 mg/kg, tumors resected day 16, compared to saline): even lower levels of Ki67

5′-UGAUUUAGACGGUAUGCAACAGG (listed as RNA, chemistry not fully specified) [gRNA2]
indels (TIDE), NRF2 disruption (NRF2 gene): significant amount of indels
